Source: publication PMC2248166, “Quantitative peptide binding motifs for 19 human and mouse MHC class I molecules derived using positional scanning combinatorial peptide libraries” (Immunome Research, 2008)

Experiments:
Assay type in all cases: binding
[1] = target: HLA A*3001 (Homo sapiens, UniProt P04439, D140H/D185E/E176W/F33S/G80R/H175R/K168Q/R138E/R41S); assay: biochemical
[2] = target: HLA A*3201 (Homo sapiens, UniProt P04439, A270S/D101S/D185E/E176V/E277Q/F133L/G103R/G107R/G231S/H175R/I121M/I218V/I322F/K168Q/L105A/L300P/L318F/M331R/P208A/P217A/Q94H/R106L/R138Q/S129P/T104I/T323A/T345S/V100E/V321M/V358M); assay: biochemical
[3] = target: HLA A*6802 (Homo sapiens, UniProt P04439, A269V/D140Y/D185E/E176V/E277Q/E87N/F33Y/G231S/I121R/I166T/I218V/L180W/L300P/L318F/N151K/P208A/P217A/Q86R/R138H/R169H/S129P/T345S/V36M)
[4] = target: HLA B*0801 (Homo sapiens, UniProt P01889, A93T/A95T/D138N/E176V/E187T/K202T/Q94N/R180D/S35A/V36M/Y33D/Y91F); assay: biochemical
[5] = target: HLA B*1501 (Homo sapiens, UniProt P01889, A329T/A93T/A95T/C349S/D201E/D98Y/E187L/E204Q/E69M/E70A/K202T/N87E/Q94N/R155S/R180W/S121R/S35A/S48A/V306I/V36M/Y140S/Y91S); assay: biochemical
[6] = target: HLA B*1503 (Homo sapiens, UniProt P01889, A329T/A93T/A95T/C349S/D201E/D98Y/E187L/E204Q/K202T/N87E/Q94N/R155S/R180L/S121R/S35A/V306I/V36M/Y140S/Y91S); assay: biochemical
[7] = target: HLA B*3501 (Homo sapiens, UniProt P01889, A329T/A93T/A95T/C349S/D201E/D98Y/E176V/E187L/E204Q/E69T/I218V/K202T/L119I/Q94N/R155S/R180L/S121R/S35A/S48A/T118I/V127L/V306I/V36M/Y140S/Y91F)
[8] = target: HLA B*5101 (Homo sapiens, UniProt P01889, A329T/A93T/A95T/C349S/D138N/D201E/D98Y/E187L/E204Q/E69T/G107R/I218V/K202T/L105A/L119W/N104I/Q94N/R106L/R155S/R180L/S101N/S121T/S35A/S48A/V306I/V36M/Y195H/Y91F)
[9] = target: HLA B*5301 (Homo sapiens, UniProt P01889, A329T/A93T/A95T/C349S/D201E/D98Y/E176V/E187L/E204Q/E69T/G107R/I218V/K202T/L105A/L119I/N104I/Q94N/R106L/R155S/R180L/S101N/S121R/S35A/S48A/T118I/V127L/V306I/V36M/Y140S/Y91F)
[10] = target: HLA B*5401 (Homo sapiens, UniProt P01889, A329T/C349S/D138N/D201E/E176V/E187T/E204Q/E69G/I76V/K202T/L119W/R155S/R180L/S121T/S35A/S48A/V127L/V306I/V36M/Y140L)
[11] = target: HLA B*5801 (Homo sapiens, UniProt P01889, A329T/C349S/D201E/D98Y/E176V/E187L/E204Q/E69T/G107R/I218V/I90N/K202T/L105A/L119I/N104I/N87E/Q89R/Q94S/R106L/R155S/R180L/R86G/S101N/S121R/S35A/S48A/T118I/V127L/V306I/V36M/Y140S/Y91M)
[12] = target: HLA B*5802 (Homo sapiens, UniProt P01889, A329T/C349S/D201E/D98Y/E176V/E187L/E204Q/E69T/G107R/I218V/I90N/K202T/L105A/N104I/N87E/Q89R/Q94S/R106L/R155S/R180L/R86G/S101N/S121W/S35A/S48A/V127L/V306I/V36M/Y140S/Y91M)
[13] = target: H-2 D^b (Mus musculus, UniProt P01899)
[14] = target: H-2 D^d (Mus musculus, UniProt P01900)
[15] = target: H-2 K^d (Mus musculus, UniProt P01902)
[16] = target: H-2 K^k (Mus musculus, UniProt P04223)
H-2 K^k, sequence (P01887 21-119): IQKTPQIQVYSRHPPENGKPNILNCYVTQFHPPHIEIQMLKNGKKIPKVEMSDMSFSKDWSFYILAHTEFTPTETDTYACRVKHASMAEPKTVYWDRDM
H-2 K^k, sequence (P04223 22-369): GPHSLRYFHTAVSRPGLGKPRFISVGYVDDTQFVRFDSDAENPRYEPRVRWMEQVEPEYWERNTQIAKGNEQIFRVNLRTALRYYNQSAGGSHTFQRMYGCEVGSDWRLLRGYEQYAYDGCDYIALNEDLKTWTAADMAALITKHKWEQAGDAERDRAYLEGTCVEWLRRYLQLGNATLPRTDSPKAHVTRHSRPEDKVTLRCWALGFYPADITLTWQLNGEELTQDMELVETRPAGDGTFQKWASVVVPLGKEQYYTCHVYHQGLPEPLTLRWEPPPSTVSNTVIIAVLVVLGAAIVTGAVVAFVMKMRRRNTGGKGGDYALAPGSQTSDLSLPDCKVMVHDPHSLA

H-2 D^b, sequence (P01887 21-119): as the sequence (P01887 21-119) above
H-2 D^b, sequence (P01899 25-362): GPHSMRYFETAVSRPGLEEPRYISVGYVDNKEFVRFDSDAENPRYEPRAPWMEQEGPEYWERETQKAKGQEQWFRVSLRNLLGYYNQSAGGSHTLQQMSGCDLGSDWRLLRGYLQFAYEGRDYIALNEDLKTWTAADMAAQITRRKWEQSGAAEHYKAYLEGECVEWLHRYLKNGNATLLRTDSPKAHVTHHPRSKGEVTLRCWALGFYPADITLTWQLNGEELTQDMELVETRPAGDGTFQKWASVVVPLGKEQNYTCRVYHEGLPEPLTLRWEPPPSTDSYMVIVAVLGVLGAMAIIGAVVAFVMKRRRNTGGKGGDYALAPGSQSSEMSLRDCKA
H-2 K^d, sequence (P01887 21-119): as the sequence (P01887 21-119) above
H-2 K^d, sequence (P01902 22-368): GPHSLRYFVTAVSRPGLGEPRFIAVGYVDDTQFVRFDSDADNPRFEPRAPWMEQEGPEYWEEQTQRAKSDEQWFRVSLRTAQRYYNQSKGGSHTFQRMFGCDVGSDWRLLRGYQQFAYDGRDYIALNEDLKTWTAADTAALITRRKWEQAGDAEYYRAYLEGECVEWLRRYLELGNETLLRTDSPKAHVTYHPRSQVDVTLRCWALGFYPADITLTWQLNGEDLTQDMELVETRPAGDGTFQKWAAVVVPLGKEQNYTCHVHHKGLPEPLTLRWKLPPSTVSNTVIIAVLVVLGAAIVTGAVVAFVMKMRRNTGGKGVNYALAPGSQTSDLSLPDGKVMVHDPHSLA
H-2 D^d, sequence (P01900 whole entry, looked up): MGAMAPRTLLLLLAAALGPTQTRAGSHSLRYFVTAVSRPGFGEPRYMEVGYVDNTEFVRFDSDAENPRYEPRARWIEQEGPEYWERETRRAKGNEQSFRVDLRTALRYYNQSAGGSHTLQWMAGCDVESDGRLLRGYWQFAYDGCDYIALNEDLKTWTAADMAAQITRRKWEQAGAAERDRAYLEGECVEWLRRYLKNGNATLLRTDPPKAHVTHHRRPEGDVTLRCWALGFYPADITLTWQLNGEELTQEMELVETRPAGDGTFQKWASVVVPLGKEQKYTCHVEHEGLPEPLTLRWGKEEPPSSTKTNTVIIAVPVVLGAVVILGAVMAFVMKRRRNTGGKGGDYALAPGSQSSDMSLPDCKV

Sequence	Normalized average relative binding affinity(ARB) [1]	Normalized average relative binding affinity(ARB) [2]	Normalized average relative binding affinity(ARB) [3]	Normalized average relative binding affinity(ARB) [4]	Normalized average relative binding affinity(ARB) [5]	Normalized average relative binding affinity(ARB) [6]	Normalized average relative binding affinity(ARB) [7]	Normalized average relative binding affinity(ARB) [8]	Normalized average relative binding affinity(ARB) [9]	Normalized average relative binding affinity(ARB) [10]	Normalized average relative binding affinity(ARB) [11]	Normalized average relative binding affinity(ARB) [12]	Normalized average relative binding affinity(ARB) [13]	Normalized average relative binding affinity(ARB) [14]	Normalized average relative binding affinity(ARB) [15]	Normalized average relative binding affinity(ARB) [16]
XXXXXIXXX [3064.0108]	0.27	0.83	0.38	0.048	0.53	0.41	0.28	0.74	0.41	0.81	0.67	0.072	0.77	0.46	0.36	0.55
XXXXXKXXX [3064.0109]	0.10	0.30	0.24	0.073	0.28	0.26	0.14	0.54	0.15	0.62	0.13	0.21	0.51	0.30	0.36	0.34
XXXXXLXXX [3064.0110]	0.28	0.33	0.16	0.061	0.12	0.37	0.29	0.55	0.18	0.21	0.49	0.31	0.64	0.54	0.34	0.25
XXXXXMXXX [3064.0111]	0.18	0.44	0.14	0.031	0.44	0.43	0.18	0.52	0.23	0.43	0.41	0.24	0.52	0.48	0.31	0.36
XXXXXNXXX [3064.0112]	0.13	0.73	0.45	0.039	0.26	0.0067	0.16	0.40	0.13	0.29	0.027	1.0	0.56	0.39	0.22	0.32
XXXXXPXXX [3064.0113]	0.19	0.27	0.57	0.039	0.11	0.47	0.14	0.067	0.15	0.15	0.20	0.39	0.23	0.094	0.15	0.38
XXXXXQXXX [3064.0114]	0.21	0.15	0.085	0.031	0.21	0.53	0.12	0.39	0.13	0.11	0.57	0.46	0.55	0.51	0.19	0.12
XXXXXRXXX [3064.0115]	0.21	0.36	0.43	0.15	0.13	0.51	0.088	0.27	0.095	0.11	0.25	0.36	0.50	0.42	1.0	0.39
